# Tested on: HBsAg
# Test: In vitro combination study, HBsAg CLIA, MacSynergy II
# Assay type: cell-based, hepatitis B virus
# Design: MacSynergy volume: unit not given here
# Conditions: for Additive % Inhibition versus negative control / MacSynergy volume: LNP-2 0 μM; for MacSynergy volume: 99.99% confidence interval
# Description: In vitro combination studies were conducted using the method of Prichard & Shipman, 1990, Antiviral Res. 14(4-5):181-205, and Prichard, et al., MacSynergy II). The HepG2.2.15 cell culture system is a cell line derived from human hepatoblastoma HepG2 cells, that have been stably transfected with the adw2-subtype HBV genome (Sells, et al., 1987, Proc. Natl. Acad. Sci. U.S.A 84:1005-1009). HepG2.2.15 cells secrete Dane-like viral particles, produce HBV DNA, and produce the viral proteins, HBeAg and HBsAg.
# Non-limiting examples of HBV RNA destabilizers are Compound A and Compound B. The EC50 values of these agents are shown in Table 12. Although inhibition of HBV DNA, RNA and proteins can be determined in the presence of the compounds of the invention and LNPs (both referred to herein as “agents”), the assay that can quantitatively measure the level of HBsAg was used in this study. To test the agent combinations, HepG2.2.15 (30,000 cells/well) were plated in 96 well tissue-culture treated microtiter plates in DMEM+L-Glutamine medium supplemented with 1% penicillin-streptomycin, 20 μg/mL geneticin (G418), 10% fetal bovine serum, and incubated in a humidified incubator at 37° C. and 5% CO2 overnight. The next day, the cells were replenished with fresh medium followed by the addition of compound of the invention (dissolved in 100% DMSO), and LNP (dissolved in 100% RPMI medium). The agents were added to cells in a checkerboard fashion. The microtiter cell plates were incubated for a total duration of 6 days in a humidified incubator at 37° C. and 5% CO2. On the 3rd day of incubation, the cells were replenished with fresh medium and agents. The serial dilutions spanned concentration ranges respective to the EC50 value of each agent, with the final DMSO concentration of the assay being 0.5%. In addition to combination testing of the agents in a checkerboard fashion, the compound and LNP were also tested alone.
# Untreated positive control samples (0.5% DMSO in media) were included on each plate in multiple wells. Following a 6 day-incubation, media was removed from treated cells for use in an HBsAg chemiluminescence immunoassay (CLIA) (Autobio Diagnostics, Cat No. CL0310-2). An HBsAg standard curve was generated to verify that the levels of HBsAg quantification were within the detection limits of the assay. The remaining inhibitor-treated cells were assessed for cytotoxicity by determination of the intracellular adenosine triphosphate (ATP) using a Cell-Titer Glo reagent (Promega) as per manufacturers instructions and by microscopic analysis of the cells throughout the duration of inhibitor treatment. Cell viability was calculated as a percentage of the untreated positive control wells.
# The plates were read using an EnVision multimode plate reader (PerkinElmer Model 2104). […] The RLU data from the single agent treated cells were analyzed using XL-Fit module in Microsoft Excel to determine EC50 values using a 4-parameter curve fitting algorithm.
# [1] = Compound A 0.0001 μM, LNP-1 0.0025, 0.00079, 0.00025, 7.9E−05, 2.5E−05, 0 μM
# [2] = Compound A 0.000316 μM, LNP-1 0.0025, 0.00079, 0.00025, 7.9E−05, 2.5E−05, 0 μM
# [3] = Compound A 0.001 μM, LNP-1 0.0025, 0.00079, 0.00025, 7.9E−05, 2.5E−05, 0 μM
# [4] = Compound A 0.00316 μM, LNP-1 0.0025, 0.00079, 0.00025, 7.9E−05, 2.5E−05, 0 μM
# [5] = Compound A 0.1 μM, LNP-1 0.0025, 0.00079, 0.00025, 7.9E−05, 2.5E−05, 0 μM
# [6] = Compound A 1.0E−05 μM, LNP-1 0.0025, 0.00079, 0.00025, 7.9E−05, 2.5E−05, 0 μM
# [7] = Compound A 1.0E−05 μM, LNP-2 0.0025, 0.00079, 0.00025, 7.9E−05, 2.5E−05, 0 μM
# [8] = Compound A 1.00E−06 μM, LNP-1 0.0025, 0.00079, 0.00025, 7.9E−05, 2.5E−05, 0 μM
# [9] = Compound A 1.00E−06 μM, LNP-2 0.0025, 0.00079, 0.00025, 7.9E−05, 2.5E−05, 0 μM
# [10] = Compound A 3.16E−06 μM, LNP-1 0.0025, 0.00079, 0.00025, 7.9E−05, 2.5E−05, 0 μM
# [11] = Compound A 3.16E−06 μM, LNP-2 0.0025, 0.00079, 0.00025, 7.9E−05, 2.5E−05, 0 μM
# [12] = Compound A 3.17E−05 μM, LNP-1 0.0025, 0.00079, 0.00025, 7.9E−05, 2.5E−05, 0 μM
# [13] = Compound A 3.17E−05 μM, LNP-2 0.0025, 0.00079, 0.00025, 7.9E−05, 2.5E−05, 0 μM
# [14] = Compound B 0.0002 μM, LNP-1 0.0025, 0.00079, 0.00025, 7.9E−05, 2.5E−05, 0 μM
# [15] = Compound B 0.0006 μM, LNP-1 0.0025, 0.00079, 0.00025, 7.9E−05, 2.5E−05, 0 μM
# [16] = Compound B 0.002 μM, LNP-1 0.0025, 0.00079, 0.00025, 7.9E−05, 2.5E−05, 0 μM
# [17] = Compound B 0.006 μM, LNP-1 0.0025, 0.00079, 0.00025, 7.9E−05, 2.5E−05, 0 μM
# [18] = Compound B 0.02 μM, LNP-1 0.0025, 0.00079, 0.00025, 7.9E−05, 2.5E−05, 0 μM
# [19] = Compound B 0.06 μM, LNP-1 0.0025, 0.00079, 0.00025, 7.9E−05, 2.5E−05, 0 μM
# [20] = Compound B 0.20 μM, LNP-1 0.0025, 0.00079, 0.00025, 7.9E−05, 2.5E−05, 0 μM
# [21] = Compound B 0.63 μM, LNP-1 0.0025, 0.00079, 0.00025, 7.9E−05, 2.5E−05, 0 μM
# [22] = Compound B 2 μM, LNP-1 0.0025, 0.00079, 0.00025, 7.9E−05, 2.5E−05, 0 μM
compound,measurement,setting,value
COCCCOc1cc2c(nc1OC)-c1cc(=O)c(C(=O)O)cn1[C@H](C(C)C)C2 [Compound A],Additive % Inhibition (HBsAg) versus negative control,[1],47.52%
same,Avg % Inhibition (HBsAg) versus negative control,[1],47.52%
same,Additive % Inhibition (HBsAg) versus negative control,"Compound A 0.0001 μM, LNP-2 0.0025, 0.00079, 0.00025, 7.9E−05, 2.5E−05, 0 μM",48.07%
same,Avg % Inhibition (HBsAg) versus negative control,"Compound A 0.0001 μM, rows r14-r19 = LNP-2 0.0025, 0.00079, 0.00025, 7.9E−05, 2.5E−05, 0 μM",48.07%
same,Additive % Inhibition (HBsAg) versus negative control,[2],66.21%
same,Avg % Inhibition (HBsAg) versus negative control,[2],66.21%
same,Additive % Inhibition (HBsAg) versus negative control,"Compound A 0.000316 μM, LNP-2 0.0025, 0.00079, 0.00025, 7.9E−05, 2.5E−05, 0 μM",74.6%
same,Avg % Inhibition (HBsAg) versus negative control,"Compound A 0.000316 μM, rows r14-r19 = LNP-2 0.0025, 0.00079, 0.00025, 7.9E−05, 2.5E−05, 0 μM",74.6%
same,Additive % Inhibition (HBsAg) versus negative control,[3],84.38%
same,Avg % Inhibition (HBsAg) versus negative control,[3],84.38%
same,Additive % Inhibition (HBsAg) versus negative control,"Compound A 0.001 μM, LNP-2 0.0025, 0.00079, 0.00025, 7.9E−05, 2.5E−05, 0 μM",87.41%
same,Avg % Inhibition (HBsAg) versus negative control,"Compound A 0.001 μM, rows r14-r19 = LNP-2 0.0025, 0.00079, 0.00025, 7.9E−05, 2.5E−05, 0 μM",87.41%
same,Additive % Inhibition (HBsAg) versus negative control,[4],90.37%
same,Avg % Inhibition (HBsAg) versus negative control,[4],90.37%
same,Additive % Inhibition (HBsAg) versus negative control,"Compound A 0.00316 μM, LNP-2 0.0025, 0.00079, 0.00025, 7.9E−05, 2.5E−05, 0 μM",92.04%
same,Avg % Inhibition (HBsAg) versus negative control,"Compound A 0.00316 μM, rows r14-r19 = LNP-2 0.0025, 0.00079, 0.00025, 7.9E−05, 2.5E−05, 0 μM",92.04%
same,Additive % Inhibition (HBsAg) versus negative control,[5],92.38%
same,Avg % Inhibition (HBsAg) versus negative control,[5],92.38%
same,Additive % Inhibition (HBsAg) versus negative control,"Compound A 0.1 μM, LNP-2 0.0025, 0.00079, 0.00025, 7.9E−05, 2.5E−05, 0 μM",93.74%
same,Avg % Inhibition (HBsAg) versus negative control,"Compound A 0.1 μM, rows r14-r19 = LNP-2 0.0025, 0.00079, 0.00025, 7.9E−05, 2.5E−05, 0 μM",93.74%
same,Additive % Inhibition (HBsAg) versus negative control,[6],16.81%
same,Avg % Inhibition (HBsAg) versus negative control,[6],16.81%
same,Additive % Inhibition (HBsAg) versus negative control,[7],27.46%
same,Avg % Inhibition (HBsAg) versus negative control,[7],27.46%
same,Additive % Inhibition (HBsAg) versus negative control,[8],17.73%
same,Avg % Inhibition (HBsAg) versus negative control,[8],17.73%
same,Additive % Inhibition (HBsAg) versus negative control,[9],16%
same,Avg % Inhibition (HBsAg) versus negative control,[9],16%
same,Additive % Inhibition (HBsAg) versus negative control,[10],8.39%
same,Avg % Inhibition (HBsAg) versus negative control,[10],8.39%
same,Additive % Inhibition (HBsAg) versus negative control,[11],20.62%
same,Avg % Inhibition (HBsAg) versus negative control,[11],20.62%
same,Additive % Inhibition (HBsAg) versus negative control,[12],23.55%
same,Avg % Inhibition (HBsAg) versus negative control,[12],23.55%
same,Additive % Inhibition (HBsAg) versus negative control,[13],34.41%
same,Avg % Inhibition (HBsAg) versus negative control,[13],34.41%
same,EC50,"HepG2.2.15 cell culture, HBsAg quantitation by CLIA, read-out: 1st Inhibitor EC50",1 nM
COCCCOc1cc2c(cc1Cl)-c1cc(=O)c(C(=O)O)cn1[C@H](C(C)C)CO2 [Compound B],Additive % Inhibition (HBsAg) versus negative control,[14],19.99%
same,Avg % Inhibition (HBsAg) versus negative control,[14],19.99%
same,Additive % Inhibition (HBsAg) versus negative control,[15],22.24%
same,Avg % Inhibition (HBsAg) versus negative control,[15],22.24%
same,Additive % Inhibition (HBsAg) versus negative control,[16],28.73%
same,Avg % Inhibition (HBsAg) versus negative control,[16],28.73%
same,Additive % Inhibition (HBsAg) versus negative control,[17],39.16%
same,Avg % Inhibition (HBsAg) versus negative control,[17],39.16%
same,Additive % Inhibition (HBsAg) versus negative control,[18],61.93%
same,Avg % Inhibition (HBsAg) versus negative control,[18],61.93%
same,Additive % Inhibition (HBsAg) versus negative control,[19],80.51%
same,Avg % Inhibition (HBsAg) versus negative control,[19],80.51%
same,Additive % Inhibition (HBsAg) versus negative control,[20],89.95%
same,Avg % Inhibition (HBsAg) versus negative control,[20],89.95%
same,Additive % Inhibition (HBsAg) versus negative control,[21],92.6%
same,Avg % Inhibition (HBsAg) versus negative control,[21],92.6%
same,Additive % Inhibition (HBsAg) versus negative control,[22],93.51%
same,Avg % Inhibition (HBsAg) versus negative control,[22],93.51%
same,Additive % Inhibition versus negative control,Compound B 0.0002 μM,16.15%
same,MacSynergy volume,Compound B 0.0002 μM,0
same,Additive % Inhibition versus negative control,Compound B 0.0006 μM,18.39%
same,MacSynergy volume,Compound B 0.0006 μM,0
same,Additive % Inhibition versus negative control,Compound B 0.002 μM,21.16%
same,MacSynergy volume,Compound B 0.002 μM,0
same,Additive % Inhibition versus negative control,Compound B 0.006 μM,31.66%
same,MacSynergy volume,Compound B 0.006 μM,0
same,Additive % Inhibition versus negative control,Compound B 0.02 μM,51.93%
same,MacSynergy volume,Compound B 0.02 μM,0
same,Additive % Inhibition versus negative control,Compound B 0.06 μM,74.92%
same,MacSynergy volume,Compound B 0.06 μM,0
same,Additive % Inhibition versus negative control,Compound B 0.20 μM,86.86%
same,MacSynergy volume,Compound B 0.20 μM,0
same,Additive % Inhibition versus negative control,Compound B 0.63 μM,91.2%
same,MacSynergy volume,Compound B 0.63 μM,0
same,Additive % Inhibition versus negative control,Compound B 2 μM,92.52%
same,MacSynergy volume,Compound B 2 μM,0

# From patent publication US11013726B2 (Arbutus Biopharma Corporation, priority 2016, dated 2021)
